Values of other authors in paper PMC8131289, “Direct Comparison of the Prediction of the Unbound Brain-to-Plasma Partitioning Utilizing Machine Learning Approach and Mechanistic Neuropharmacokinetic Model” (The AAPS Journal, 2021).
Where two headings read alike, the source gives them in different places.

What was measured:
[1] = external dataset
MDR1 = MDR1 (Homo sapiens, UniProt P08183)
BCRP = molecular target: T1, BCRP (Homo sapiens, UniProt Q9UNQ0)
T1 sequence (Q9UNQ0 1-655): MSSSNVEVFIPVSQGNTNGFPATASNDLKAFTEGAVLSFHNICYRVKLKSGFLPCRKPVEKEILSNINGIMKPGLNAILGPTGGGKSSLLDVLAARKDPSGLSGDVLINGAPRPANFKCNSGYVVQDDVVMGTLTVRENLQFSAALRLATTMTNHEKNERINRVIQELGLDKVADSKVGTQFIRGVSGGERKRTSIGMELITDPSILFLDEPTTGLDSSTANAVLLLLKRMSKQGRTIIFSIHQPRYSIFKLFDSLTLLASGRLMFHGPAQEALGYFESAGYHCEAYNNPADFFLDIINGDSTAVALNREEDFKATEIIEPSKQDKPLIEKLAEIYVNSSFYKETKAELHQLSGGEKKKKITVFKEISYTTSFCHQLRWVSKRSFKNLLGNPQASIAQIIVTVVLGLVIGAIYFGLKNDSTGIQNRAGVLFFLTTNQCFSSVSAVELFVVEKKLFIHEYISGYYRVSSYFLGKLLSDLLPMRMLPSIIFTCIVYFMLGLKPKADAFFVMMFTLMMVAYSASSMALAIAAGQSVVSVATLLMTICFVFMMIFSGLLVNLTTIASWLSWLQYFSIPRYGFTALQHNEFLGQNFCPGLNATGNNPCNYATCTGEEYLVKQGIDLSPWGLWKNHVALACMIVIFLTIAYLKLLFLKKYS

[2] = MDCK-MDR1 cells, external dataset, ref (17)
[3] = MDCK-BCRP cells, external dataset, ref (17)

MDR1, sequence (P08183 whole entry): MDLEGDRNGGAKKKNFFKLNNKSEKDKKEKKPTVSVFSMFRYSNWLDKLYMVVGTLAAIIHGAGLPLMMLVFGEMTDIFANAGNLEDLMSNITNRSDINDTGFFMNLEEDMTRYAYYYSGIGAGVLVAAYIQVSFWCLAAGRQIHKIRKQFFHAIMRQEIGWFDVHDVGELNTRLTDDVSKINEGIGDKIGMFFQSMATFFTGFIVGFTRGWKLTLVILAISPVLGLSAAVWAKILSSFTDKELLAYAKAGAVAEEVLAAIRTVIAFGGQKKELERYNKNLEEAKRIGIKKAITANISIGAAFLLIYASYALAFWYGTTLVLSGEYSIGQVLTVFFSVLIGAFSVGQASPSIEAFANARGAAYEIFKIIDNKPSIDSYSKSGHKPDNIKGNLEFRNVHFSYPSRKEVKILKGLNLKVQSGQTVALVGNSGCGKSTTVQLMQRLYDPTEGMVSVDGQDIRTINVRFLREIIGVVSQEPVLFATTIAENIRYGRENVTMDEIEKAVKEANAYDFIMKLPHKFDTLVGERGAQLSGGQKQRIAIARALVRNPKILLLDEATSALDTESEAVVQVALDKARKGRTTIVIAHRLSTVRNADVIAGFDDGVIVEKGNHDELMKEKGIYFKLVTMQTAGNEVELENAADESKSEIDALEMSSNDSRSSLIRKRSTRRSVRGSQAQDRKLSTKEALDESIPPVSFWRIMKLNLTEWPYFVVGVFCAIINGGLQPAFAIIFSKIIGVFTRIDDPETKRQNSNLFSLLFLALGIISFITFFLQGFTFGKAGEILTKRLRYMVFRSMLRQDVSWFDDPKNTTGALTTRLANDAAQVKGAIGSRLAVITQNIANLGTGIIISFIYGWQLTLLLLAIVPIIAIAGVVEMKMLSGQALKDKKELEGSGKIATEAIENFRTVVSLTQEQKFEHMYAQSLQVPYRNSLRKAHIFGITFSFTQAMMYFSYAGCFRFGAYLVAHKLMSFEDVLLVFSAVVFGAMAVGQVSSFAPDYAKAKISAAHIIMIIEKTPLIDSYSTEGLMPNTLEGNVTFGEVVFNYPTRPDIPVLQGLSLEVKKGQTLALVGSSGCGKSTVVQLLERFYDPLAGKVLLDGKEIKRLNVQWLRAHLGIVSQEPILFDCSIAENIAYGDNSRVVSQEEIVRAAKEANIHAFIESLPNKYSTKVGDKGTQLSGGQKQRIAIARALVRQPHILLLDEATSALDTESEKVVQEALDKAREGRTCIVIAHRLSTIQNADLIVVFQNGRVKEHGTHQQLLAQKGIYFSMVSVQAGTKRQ

Kp,uu,brain ([1]; ref (30))	Efflux ratio MDR1 (MDR1; [2])	Efflux ratio BCRP (BCRP; [3])	SMILES	other results
1.43	2.6	0.57	CSc1ccc2c(c1)N(CCC1CCCCN1C)c1ccccc1S2 (centres unmarked) [Thioridazine]	–
1.07	–	–	COc1ccc(C(CN(C)C)C2(O)CCCCC2)cc1 (centres unmarked) [Venlafaxine]	–
–	5.4	–	CC(C)NCC(O)COc1cccc2[nH]ccc12 (centres unmarked) [Pindolol]	–
–	0.46	–	CN[C@H]1CC[C@@H](c2ccc(Cl)c(Cl)c2)c2ccccc21 [Sertraline]	–
–	4.4	20	COc1ccc2c(c1)c(CC(=O)O)c(C)n2C(=O)c1ccc(Cl)cc1 [Indomethacin]	–
–	1.42	–	CN(Cc1cnc2nc(N)nc(N)c2n1)c1ccc(C(=O)N[C@@H](CCC(=O)O)C(=O)O)cc1 [Methotrexate]	–
1.61	–	–	CN1CCN2c3ncccc3Cc3ccccc3C2C1 (centres unmarked) [Mirtazapine]	–
2.14	–	–	CNCCC(Oc1ccc(C(F)(F)F)cc1)c1ccccc1 (centres unmarked) [Fluoxetine]	–

The remaining lines, values behind:

SMILES	Kp,uu,brain ([1]; ref (30))	Efflux ratio MDR1 (MDR1; [2])	Efflux ratio BCRP (BCRP; [3])	other results
Cc1cc(=O)n(-c2ccccc2)n1C [Antipyrine]	–	–	–	Efflux ratio MDR1 (MDR1; MDCK-MDR1): 0.91; Efflux ratio BCRP (BCRP): 0.96
NC(=O)N1c2ccccc2C=Cc2ccccc21 [Carbamazepine]	0.389	1.26	0.88	–
C#Cc1cccc(Nc2ncnc3cc(OCCOC)c(OCCOC)cc23)c1 [Erlotinib]	–	–	–	Kp,uu,brain ([1]; ref (17)): 0.0614
CN(C)C(=O)C(CCN1CCC(O)(c2ccc(Cl)cc2)CC1)(c1ccccc1)c1ccccc1 [Loperamide]	0.0244	–	–	–
CC(NC(C)(C)C)C(=O)c1cccc(Cl)c1 (centres unmarked) [Bupropion]	–	1.2	0.80	–
